# Measured values reported in US7491501B2, “Methods for identifying modulators of intracellular aggregate formation” (Auburn University, priority 2003, dated 2009).
# Where a SMILES comes first, the peptide text is derived from it. [ ]: non-standard residue; d: D form. The star is where a group is joined. Nle = CCCC[C@H](N)C(=O)O; Cbz = O=C(OCc1ccccc1)*
# Key:
# GFP-p62-expressing cells = test: Live/Dead Viability/Cytotoxicity assay of cells with or without p62 aggregates; assay type: cell-based; conditions: With ALLN; cells scored by GFP-p62 expression
# Experimental: Cell Death Assay—Live and dead cells were identified with LIVE/DEAD Viability/Cytotoxicity Kit (Molecular Probes, Eugene, Oreg.) according to the manufacturer's instruction.
# The role of aggregates and their relationship to cell survival are controversial. […] Viability of cells with p62 aggregates employing the Live/Dead Viability/Cytotoxicity assay was determined (Table 1).
# [1] = test system: p62 aggregates in HEK cells; test: p62 aggregate formation by confocal/fluorescence microscopy in transfected HEK cells; assay type: cell-based, Human; conditions: for large p62 aggregates upon inhibition of proteasomal degradation: MG132 data not shown; for size of aggregates of cotransfected p62, ubiquitin, TRAF6, tau, UbcH7: cotransfected cells (FIG. 9C), MG132 not shown; for formation of the p62 aggregates (microtubule dependence): data not shown
# Experimental: Immunofluorescence staining—All steps were done at room temperature unless stated otherwise. The inclusion bodies were placed on poly-L-lysine coated 12 well slides (Cel-line/Erie Scientific Co., Portmouth, N.H.) and let partially dry. Inclusion bodies on the slides were fixed for 10 min in 3% paraformaldehyde (Electron Microscopy Sciences, Fort Washington, Pa.) and permeabilized with 0.1% Triton X-100 in PBS for 15 minutes. The inclusion bodies were incubated in blocking buffer (3% non fat dry milk in PBS) for 1 h, prior to incubation with primary antibodies at 4° C. overnight. After washing with PBS, the secondary antibody (Molecular Probes Inc., Eugene, Oreg.) in blocking buffer was applied for 1 h. After extensive washing in PBS, the samples were mounted using Vectashield (Vector Laboratories Inc., Burlingame, Calif.). The cells were fixed with 3% paraformaldehyde and processed similar to that of inclusion staining.
# Cells were incubated with rabbit anti-myc IgG or mouse anti-HA IgG and labeled with Texas Red-conjugated anti-rabbit antibodies (red) or Oregon Green-conjugated anti-mouse antibodies (green), respectively. Merged images with overlapping immunoreactivity are shown in yellow. Note that cells expressing p62 lacking its UBA domain (p62ΔUBA) fail to form aggregates or to colocalize with ubiquitin. All experiments were replicated three independent times with similar results. Small aggregates of p62 colocalized with ubiquitin which was dependant upon the presence of a UBA domain but not the N-terminal portion of p62. Aggregation may impair the proteasome or, alternatively, impaired proteasome activity may seed aggregates. Alternatively, impairment of the proteasome may enhance the formation of p62 aggregates containing polyubiquitin.
# In summary, through its UBA domain, p62 Interacts with polyubiquitinated substrates, and the UBA domain is necessary for aggregate formation.
# Since TRAF6 localized to the large aggregates along with polyubiquitin (FIG. 2B), these aggregates may represent the failed attempt of the cell to rid itself of TRAF6-K63-polyubiquitinated substrates sequestered through interaction with the UBA domain. […] Altogether, these findings reveal that p62 binds proteins with K63 chains through its UBA domain and that p62 aggregates sequester TRAF6 as well as K63-polyubiquitinated substrates.
# To further determine if the coassociation of tau-p62-TRAF6 and UbcH7 could be recapitulated in vitro, a cotransfection approach was undertaken. […] HEK cells were transfected with GFP-p62 followed by treatment or not with Aβ1-42 and Aβ42-1 peptides. […] This is consistent with the observation that microtubule dependent transport is important for the formation of p62 inclusions as assessed by treatment of the cells with nocodazole, a microtubule disrupting agent (9).
# HEK cells = test: Cell survival by MTS reagent in p62-transfected HEK cells (FIG. 1D); assay type: cell-based, Human; conditions: ALLN (50 μM) 30 h
# Experimental: In FIG. 1D HEK cells (in a 24-well plate) were transfected with myc-tagged wild-type p62, p62ΔUBA, or p62ΔN-term along with HA-tagged ubiquitin constructs. After 24 h of transfection, the cells were treated with or without ALLN (50 μM) for 30 h. Cell survival was assessed by the addition of MTS reagent for 2 h. Values plotted in FIG. 1D are means±standard error of the means of four different experiments.
# ubiquitinated tau = test: Accumulation of ubiquitinated tau in tau-transfected HEK cells treated with degradation inhibitors; assay type: cell-based, Human; conditions: 50 μM ALLN, 5 μM MG132 or 0.15 mM chloroquine, 24 h
# From the text: Depletion of p62 levels by transfection of antisense (AS) p62 retarded the turnover of p62 (FIG. 12A). […] Collectively these findings reveal that tau turnover is regulated by both the expression of p62 and the presence of K63 polyubiquitin chains carried by tau. The best known function of protein ubiquitination is to target proteins for degradation by the 26S proteasome. However, K63 chains have been hypothesized to play a role aside of targeting proteins to the proteasome. To test whether K63 chains are able to signal proteasomal degradation, tau was first ubiquitinylated in an in vitro reaction with K63 ubiquitin. The protein complex containing polyubiquitinated tau on beads was then incubated with 26S proteasome supplemented with MgCl2 and ATP. The polyubiquitinated chains disappeared after incubation with purified 26S proteasome (FIG. 12B). To determine whether the observed disappearance of polyubiquitinated products is due to degradation or to the deubiquitinating activity in the 26S proteasome fraction, a deubiquitination inhibitor, Ub-H was added to the reaction. […] To test if ubiquitinated tau was targeted to the proteasome, HEK cells cotransfected with His-tau were treated with ALLN, MG132 or chloroquine. Both ALLN and MG132 block proteasome degradation, whereas chloroquine blocks degradation through the lysosome. It was observed that ubiquitinated tau accumulates in the presence of proteasome inhibitors, but not chloroquine, thus confirming that polyubiquitinated tau is degraded by the proteasome (FIG. 12C).
# [2] = test system: tau aggregates in PC12 cells; test: Tau aggregate formation in NGF-treated PC12 cells (Table 3); assay type: cell-based; conditions: PC12, NGF 50 ng/ml; MG132 25 μM, Aβ peptides 10 μM; 6% without agent
# Experimental: PC12 cells were treated with NGF to induce tau polyubiquitination and treated or not with MG132 or Aβ and Aβ1-42, Aβ42-1. […] The relationship between aggregate formation and cell death was assessed (Tables, 3 & 4). Tau aggregate formation was observed upon treatment with MG1 32 or Aβ1-42 peptide. […] Furthermore, aggregate formation correlated with enhanced […] (Table 4).
# All cells were treated with NGF (50 ng/ml), followed by addition of control or inhibitory TRAF6 peptide +/−Aβ peptide. Cells were stained for tau and 300 cells from two independent experiments were scored for the presence of tau aggregates or not.
# PC12 cells = test: Cell survival assay (MTS) in NGF-treated PC12 cells (Table 4); assay type: cell-based; conditions: PC12, NGF 50 ng/ml, MG132 25 μM, Aβ peptides 10 μM, 24 h, 100% without agent
# Experimental: Cell Survival Assay—PC 2 cells were treated with 50 ng/ml NGF 24 h prior to addition of TRAF6 control or inhibitor peptide (75 μM). After 5 h, the cells were treated for an additional 24 h with or without MG132 (25 μM), Aβ peptide 42-1 or 1-42 (10 μM). Cell survival was measured by MTS assay.
# All cells were treated with NGF (50 ng/ml), followed by addition of control or inhibitory TRAF6 peptide +/−Aβ peptide. Survival was measured by MTS assay.
# [3] = target: T1, interaction of p62 with TRAF6 (Rattus norvegicus, UniProt B5DF45); test: TRAF6 immunoprecipitation and Western blot for p62/UbcH7 in NGF-stimulated PC12 cells; assay type: cell-based; conditions: 150 μM peptide 5 hours, NGF 15 min
# T1 construct: followed by NGF stimulation for 15 min and immunoprecipitation of TRAF6 followed by Western blotting for p62; endogenous in cells; host or cells: PC12
# Experimental: Immunoprecipitation and Western blotting—Each mg of lysate/inclusion bodies was incubated with 41 ng of primary antibody at 4° C. for 3 h and then with 50 μl of 50% agarose-coupled secondary antibody for 2 more hours at 4 C. The beads were washed three times with lysis buffer, eluted by adding SDS-PAGE sample buffer, and subjected to SDS-PAGE in 7.5-12% acrylamide gels. Immunoblotting was performed on nitrocellulose membranes and analyzed by western blotting with ECL detection reagents (Amersham Biosciences).
# (§1) The region spanning amino acids 225-251 is necessary for the interaction of p62 with TRAF6. The peptide containing TRAF6 binding motif in p62 along with the hydrophobic sequence containing the cell-permeable motif from Kaposi fibroblast growth factor sequence, […]-[…] (SEQ ID NO. 4) and control peptide […]-[…] (SEQ ID NO. 5) was synthesized. As a preliminary step, PC12 cells were pretreated with various concentrations of peptide for 5 h, followed by NGF stimulation for 15 min and immunoprecipitation with TRAF6 and western blotted with p62. […] The peptide was then tested for its ability to block NGF-induced tau polyubiquitination (FIG. 13A).
# (§2) The peptide containing the TRAF6-binding motif in p62 along with the hydrophobic sequence containing the cell-permeable motif from Kaposi fibroblast growth factor signal sequence […]-[…] (SEQ ID NO. 4) and control peptide […]-[…] (SEQ ID NO. 5) was synthesized. As a preliminary step, PC12 cells were pretreated with different concentrations (75-300 μM) of TRAF6 peptide for 5 hours followed by NGF stimulation for 15 min and immunoprecipitation of TRAF6 followed by Western blotting for p62. […] To address whether TRAF6 peptide affects the interaction of p62 and UbcH7 with TRAF6, PC12 cells were treated with or without 150 μM of control peptide or TRAF6 peptide for 5 hours and then stimulated with NGF for 15 min. By immunoprecipitating TRAF6, TRAF6 peptide (150 μM) abrogated the interaction of p62 with TRAF6, but not UbcH7, upon NGF treatment (FIG. 8A). […] The ability of the TRAF6 peptide to impair the ubiquitination process was investigated. Lysates recovered from NGF treated cells were immunoprecipitated with TrkA receptor antibody and blotted for ubiquitin or the receptor (FIG. 15B). […] The ability of the peptide to interrupt the formation of the functional TrkA-p62-TRAF6-UbcH7 complex on NGF stimulation as well was also investigated. TrkA was immunoprecipitated and blotted for the presence of each protein in the complex (FIG. 15C).
# tau polyubiquitination = test: NGF-induced tau polyubiquitination in PC12 cells (FIG. 13A); assay type: cell-based; conditions: control not shown
# Experimental: as §1
# TrkA = test: NGF-dependent TrkA ubiquitination and TrkA complex formation in PC12 cells (FIG. 15B, 15C); assay type: cell-based; conditions: NGF treated, TrkA immunoprecipitation
# Experimental: as §2
# [4] = test system: internalization of NGF by PC12 cells; test: Internalization of NGF, 125I-NGF binding assay in PC12 cells (FIG. 15D); assay type: cell-based; conditions: PC12 cells pretreated with peptide (150 μM); control not shown
# Experimental: Additionally, PC12 cells were pretreated or not with TRAF6 peptide (150 μM) followed by measurement of internalized receptor employing 125I-NGF binding assay (FIG. 15D). […] Similarly, the level of internalized NGF was measured in PC12 cells transfected with wild-type ubiquitin, K48R or K63R ubiquitin mutants (FIG. 15E). Transfection of ubiquitin, or K48R mutant was without any effect on internalization of NGF. By comparison, transfection of K63R ubiquitin mutant totally abrogated internalization of the ligand. […] Thus, p62 serves as an adaptor, as well as, a scaffold for TRAF6-directed ubiquitination and K63 chains play a signaling role for internalization and sorting of the receptor.
# T1 sequence (B5DF45 whole entry): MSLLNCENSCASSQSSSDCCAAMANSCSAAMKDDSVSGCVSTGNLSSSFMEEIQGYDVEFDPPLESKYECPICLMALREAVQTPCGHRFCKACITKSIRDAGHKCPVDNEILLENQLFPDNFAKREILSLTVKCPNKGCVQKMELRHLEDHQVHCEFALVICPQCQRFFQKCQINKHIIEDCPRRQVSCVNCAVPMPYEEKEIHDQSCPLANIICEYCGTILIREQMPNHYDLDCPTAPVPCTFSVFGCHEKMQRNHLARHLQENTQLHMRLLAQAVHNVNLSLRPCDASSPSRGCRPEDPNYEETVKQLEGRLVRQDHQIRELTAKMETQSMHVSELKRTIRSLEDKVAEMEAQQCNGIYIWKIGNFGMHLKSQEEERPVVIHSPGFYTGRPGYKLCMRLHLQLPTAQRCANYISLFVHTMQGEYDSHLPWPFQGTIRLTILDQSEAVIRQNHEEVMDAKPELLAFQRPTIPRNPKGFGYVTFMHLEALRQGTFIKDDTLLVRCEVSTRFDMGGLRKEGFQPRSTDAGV
# T1 sequence (D3Z8W5 1-154 partner): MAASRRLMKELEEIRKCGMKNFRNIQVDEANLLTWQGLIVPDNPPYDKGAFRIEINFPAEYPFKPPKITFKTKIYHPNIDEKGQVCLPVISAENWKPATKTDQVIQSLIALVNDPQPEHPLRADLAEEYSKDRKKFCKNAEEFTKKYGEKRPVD
compound,measurement,setting,value
"CCCC[C@@H](C=O)NC(=O)[C@H](CC(C)C)NC(=O)[C@H](CC(C)C)NC(C)=O [ALLN, N-acetyl-Leu-Leu-Norleu-AL] (Ac-Leu-Leu-[Nle]-aldehyde)","% of cells, With aggregates, Alive",GFP-p62-expressing cells,48%
same,"% of cells, With aggregates, Dead",GFP-p62-expressing cells,52%
same,"% of cells, Without aggregates, Alive",GFP-p62-expressing cells,38%
same,"% of cells, Without aggregates, Dead",GFP-p62-expressing cells,62%
same,size of the aggregates,"[1]; HEK cells, ALLN (50 μM) 24 h, 6 to 8 microns without ALLN",12 to 14 microns
same,GFP-p62-expressing cells accumulating large p62 aggregates,"[1]; HEK cells, ALLN treatment",100%
same,average number of aggregates per cell,"[1]; HEK cells, with versus without ALLN",essentially similar
same,large p62 aggregates upon inhibition of proteasomal degradation,[1]; HEK cells,large aggregates of p62 which contained sequestered polyubiquitin were visible
same,"size of aggregates of cotransfected p62, ubiquitin, TRAF6, tau, UbcH7",[1],increased in size
same,cell survival-promoting effects of p62,HEK cells,completely inhibited
same,accumulation of ubiquitinated tau,ubiquitinated tau,accumulates
"CC(C)C[C@@H](C=O)NC(=O)[C@H](CC(C)C)NC(=O)[C@H](CC(C)C)NC(=O)OCc1ccccc1 [MG132, Z-Leu-Leu-Leu-CHO] (Cbz-Leu-Leu-Leu-aldehyde)",large p62 aggregates upon inhibition of proteasomal degradation,[1]; HEK cells,large aggregates of p62 which contained sequestered polyubiquitin were visible
same,"size of aggregates of cotransfected p62, ubiquitin, TRAF6, tau, UbcH7",[1],increased in size
same,"cells with tau aggregates, agent alone (Control, no TRAF6 peptide)",[2],82%
same,"cell survival, agent alone (Control, no TRAF6 peptide)",PC12 cells,44.3%
same,accumulation of ubiquitinated tau,ubiquitinated tau,accumulates
CCN(CC)CCCC(C)Nc1ccnc2cc(Cl)ccc12 (centres unmarked) [chloroquine],accumulation of ubiquitinated tau,ubiquitinated tau,not
COC(=O)Nc1nc2ccc(C(=O)c3cccs3)cc2[nH]1 [nocodazole],formation of the p62 aggregates (microtubule dependence),[1],prevented their formation
CC[C@]1(O)C[C@@H]2CN(CCc3c([nH]c4ccccc34)[C@@](C(=O)OC)(c3cc4c(cc3OC)N(C)[C@H]3[C@@](O)(C(=O)OC)[C@H](OC(C)=O)[C@]5(CC)C=CCN6CC[C@]43[C@@H]65)C2)C1 [vinblastine],formation of the p62 aggregates (microtubule dependence),[1],prevented their formation
AAVALLPAVLLALLAP-ESASGASADASVNFLK [control peptide],interaction of p62 with TRAF6,[3],without effect
same,NGF-induced tau polyubiquitination,tau polyubiquitination,not
same,NGF-dependent ubiquitination of TrkA,TrkA,no effect
same,internalization of NGF,[4],not
Aβ1-42: neurotoxic amyloid beta peptide,formation of p62 aggregates by Aβ peptide,[1]; HEK cells transfected with GFP-p62 (FIG. 9D),induced formation of p62 aggregates
same,"cells with tau aggregates, agent alone (Control, no TRAF6 peptide)",[2],72%
same,"cell survival, agent alone (Control, no TRAF6 peptide)",PC12 cells,45.7%
